Patent US20240358684A1, “METHOD FOR ENHANCING INNATE IMMUNE RESPONSE” (Kyoto University, priority 2021, published 2024)
Where “and” joins values, the source holds several entries; their conditions need not be identical. Equal values may be shown once.

Assays:
CLK1 = target: T1, CLK1 (Homo sapiens, UniProt P49759); assay: Inhibition confirmation test for CLK (off-chip mobility shift assay); type: biochemical; conditions: ATP 10 μM; read-out: CLK1 inhibitory activity (IC50 value)
T1 construct: Enzyme activity was measured with off-chip mobility shift assay using purified CLK protein
T1 sequence (P49759 whole entry): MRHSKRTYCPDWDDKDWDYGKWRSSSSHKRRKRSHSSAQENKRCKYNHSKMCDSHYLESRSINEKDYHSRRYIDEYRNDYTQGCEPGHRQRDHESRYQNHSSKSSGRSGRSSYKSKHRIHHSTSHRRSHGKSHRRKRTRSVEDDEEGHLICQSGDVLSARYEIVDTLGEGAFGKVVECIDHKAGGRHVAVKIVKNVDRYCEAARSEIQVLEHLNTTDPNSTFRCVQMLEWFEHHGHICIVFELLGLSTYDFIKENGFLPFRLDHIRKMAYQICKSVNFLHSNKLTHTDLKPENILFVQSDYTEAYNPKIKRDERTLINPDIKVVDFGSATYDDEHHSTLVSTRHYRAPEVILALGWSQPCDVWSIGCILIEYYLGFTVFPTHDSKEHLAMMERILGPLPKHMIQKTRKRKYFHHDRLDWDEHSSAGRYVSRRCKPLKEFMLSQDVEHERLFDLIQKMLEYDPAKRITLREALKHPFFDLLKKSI
Description: Enzyme activity was measured with off-chip mobility shift assay using purified CLK protein. […] The enzyme reaction was performed at room temperature for 1 hour, and the reaction was terminated by adding QuickScout Screening Assist MSA (Carna Biosciences, Inc.). A substrate peptide and a phosphorylated peptide in the enzyme reaction solution were separated and quantified using the LabChip system (Perkin-Elmer, Waltham, MA, USA), and inhibition of CLK was evaluated by calculating a product ratio using the following formula, the substrate peptide peak height (S), and the phosphorylated peptide peak height (P).
(P/(P+S)) • P: product-derived peak • S: substrate-derived peak

[1] = test system: OAS1 exon 5 splice donor (SD) sequence; assay: RNA pull-down assay with OAS1 exon 5 splice donor RNA and western blot; type: binding, human; conditions: Calu-3 cell lysate, 10 μM
Description: Calu-3 whole cell lysates were prepared using a lysis buffer containing 10 mM Tris-HCl (pH 7.4), 150 mM NaCl, 1 mM ethylenediaminetetraacetic acid, 1% Triton X-100, 0.1% sodium dodecyl sulphate, 0.25% sodium deoxycholate, and 10% glycerol with protease inhibitors (Nacalai Tesque) and phosphatase inhibitors (Sigma-Aldrich, Munich, Germany), followed by sonication, treatment with DNase I (Promega. Madison, WI, USA) at 37° C. for 5 min, and centrifugation (24,000×g at 4° C. for 15 min). The supernatant was used as the soluble fraction for the RNA-pull down assay. […] This was followed by washing the resultant thrice with tris-buffered saline and elution with Laemmli buffer. Three technical replicates for RNA pull-down assay were independently conducted, three times from a stocked cell lysate. […] Chemiluminescent signals were detected using a ChemiDoc MP Imaging System (Bio-Rad, Hercules, CA, USA).

[2] = test system: OAS1 rs10774671 A-allele splicing; assay: RT-PCR for OAS1 alternative splicing profile in Calu-3 (A/A allele) cells; type: cell-based, human; conditions: Calu-3, 10 μM, 24 h
OAS1 splice variants = assay: RNA-Seq splice-junction reads for OAS1 splice variants in Calu-3 cells; type: cell-based, human; conditions: Calu-3, 10 μM, 18 h
Description: (§1) Transcriptome analysis for compound 1-treated Calu-3 cells RNAs were extracted using RNeasy Mini kit (QIAGEN, Hilden, Germany) from Calu-3 cells, treated with 10 μM compound 1 or 0.1% DMSO for 18 h, and applied for RNA-Seq analysis. Three technical replicates for RNA-Seq, where each experiment was independently conducted three times from a stocked total RNA. RNA-seq reads were mapped to the human genome sequences (GRCh38) using STAR (ver. 2.7.1a, https://github.com/alexdobin/STAR) with ENCODE options, using the Ensembl genome annotation (ver. 102). Raw reads were counted with bam files, and TPM values were calculated using RSEM v1.2.31 (https://github.com/deweylab/RSEM). Differentially expressed genes were identified using the method described above. Differential alternative splicing (DAS) events were analyzed with the method previously described (Sakuma et al., 2015) using the rMATS program (http://rnaseq-mats.sourceforge.net/rmats4.1.1/). DAS was defined by the following criteria: FDR<0.01, read counts≥15, and delta Percent Spliced-In (PSI)≥0.05. The DAS events were compared with the gene annotation information, the event types were then classified into events on the exons constituting the productive mRNAs, events on additional exons/regions of the productive mRNAs, and others. For characterizing gene set and transcriptome profiles, the Metascape website (https://imetascape.org/) and Gene Set Enrichment Analysis (GSEA, https://ww.gsea-maigdb.org/gsea/) were used. The same samples were also used for RT-PCR.

SARS-CoV-2 = type: cell-based
IFNB1 = type: cell-based, human
Calu-3 cells = assay: Transcriptome analysis (RNA-Seq, differential expression and differential alternative splicing) of compound 1-treated Calu-3 cells; type: cell-based, human; conditions: 18 h; for delta PSI: 10 μM
Description: as §1

[3] = test system: RNase L pathway (rRNA degradation)

N=C1NC(=O)/C(=C/c2ccc3c(c2)CCO3)S1 [compound 1]
IC50 (CLK1): 21.6 nM
U1snRNP (U1-70k) binding to OAS1 exon 5 donor site [1]: enhanced
phosphorylated SRSF6 in OAS1 SD pull-down products [1]: not detected
splice-switching for OAS1 with the A-allele (RT-PCR) [2]: suppressing p42 splicing while promoting p44a and p44b variant production
p42 variant suppressed (RNA-Seq) (OAS1 splice variants): 51%
p44a variant increased (RNA-Seq) (OAS1 splice variants): 130%
p44b variant increased (RNA-Seq) (OAS1 splice variants): 100%
viral titer fold change (SARS-CoV-2): 0.56
log10 (TCID50/ml) Batch-effect corrected (SARS-CoV-2; 10 μM, 2nd batch replicates, listed as Compund 1): 7.6 and 7.44 and 7.41
log10 (TCID50/ml) (SARS-CoV-2; 10 μM, raw, single replicates of 1st and 2nd batch, listed as Compund 1): 7.5 (2×) and 7.25 and 6.75 and 6.5 and 6.45
viral titer (SARS-CoV-2; Calu-3 pre-treated 24 h with 10 μM, MOI 0.01, 48 hours pi, DMSO control 5.18×10^7): 2.90×10^7
transcription of IFNB1 during viral infection (IFNB1): increases
delta PSI (Calu-3 cells; AAMP Intron between E5-E7 RI): −0.307
delta PSI (Calu-3 cells; AC107871.1 E2-E3 SE additional exon): −0.333
delta PSI (Calu-3 cells; AL117339.4 E2 SE): 0.318
delta PSI (Calu-3 cells; AL136531.2 E2-E3 SE additional exon): −0.418
delta PSI (Calu-3 cells; AL163636.1 E2 SE): 0.331
delta PSI (Calu-3 cells; APOL1 E3 A3SS): −0.448
delta PSI (Calu-3 cells; CABYR E4 A5SS): 0.309
delta PSI (Calu-3 cells; CDK5RAP2 E32 SE): 0.313
delta PSI (Calu-3 cells; CENPE E17 SE): 0.422
delta PSI (Calu-3 cells; CFAP298 Intron between E5-E7 RI): −0.451
delta PSI (Calu-3 cells; CLK1 E4 SE): 0.331
delta PSI (Calu-3 cells; CLK4 E4 SE): 0.37
delta PSI (Calu-3 cells; CLK4 Intron between E3-E4 RI): −0.346
delta PSI (Calu-3 cells; CLK4 Intron between E4-E5 RI): −0.401
delta PSI (Calu-3 cells; CYLD E2-E3 SE additional exon): −0.307
differential expression, number of genes (Calu-3 cells; Calu-3, 10 μM): 98 genes
splice alterations yielding protein-coding variants, number of genes (Calu-3 cells; Calu-3, 10 μM): 63 genes
delta PSI (Calu-3 cells; DCUN1D2 E4-E5 SE additional exon): −0.438
delta PSI (Calu-3 cells; DMD E71 SE): 0.365
delta PSI (Calu-3 cells; DNHD1 Intron between E42-E43 RI): −0.31
delta PSI (Calu-3 cells; DNM1 E14 SE): 0.342
delta PSI (Calu-3 cells; DYNC1LI1 Intron between E8-E10 RI): −0.778
delta PSI (Calu-3 cells; EPB41 E16-E17 SE additional exon): −0.301
delta PSI (Calu-3 cells; FAAP100 E2 A5SS): −0.318
delta PSI (Calu-3 cells; GALT Intron between E2-E6 RI): −0.374
delta PSI (Calu-3 cells; GK E9 SE): 0.322
delta PSI (Calu-3 cells; HAT1 Intron between E6-E8 RI): −0.584
delta PSI (Calu-3 cells; HERC3 E17 SE): 0.309
delta PSI (Calu-3 cells; HERC4 E17 SE): 0.38
delta PSI (Calu-3 cells; IMPDH2 Intron between E3-E5 RI): −0.376
delta PSI (Calu-3 cells; KANSL3 E3 A3SS): −0.309
delta PSI (Calu-3 cells; KTN1 E41 SE): 0.304
delta PSI (Calu-3 cells; LIMCH1 E9 SE): 0.42
delta PSI (Calu-3 cells; LRP8 E5 SE): 0.392
delta PSI (Calu-3 cells; LRRC6 E5 SE): 0.391
delta PSI (Calu-3 cells; LRRC75B E1-E2 SE additional exon): −0.338
delta PSI (Calu-3 cells; MAP3K7 E12 SE): 0.404
delta PSI (Calu-3 cells; MCTP1 E8 SE): 0.367
delta PSI (Calu-3 cells; METTL26 E2 SE): 0.3
delta PSI (Calu-3 cells; MON2 E28 SE): 0.345
delta PSI (Calu-3 cells; MPP3 E11 SE): 0.32
delta PSI (Calu-3 cells; MSL3 Intron between E4-E6 RI): −0.485
delta PSI (Calu-3 cells; MYO6 E34 SE): 0.405
delta PSI (Calu-3 cells; MYOM1 E18 SE): 0.344
delta PSI (Calu-3 cells; NAV2 E28 SE): 0.437
delta PSI (Calu-3 cells; NEK1 E17 SE): 0.367
delta PSI (Calu-3 cells; NGDN Intron between E4-E7 RI): −0.302
delta PSI (Calu-3 cells; OBSL1 E12 SE): 0.369
delta PSI (Calu-3 cells; PCGF3 E3-E4 SE additional exon): −0.318
delta PSI (Calu-3 cells; PDE9A E5 SE): 0.378
delta PSI (Calu-3 cells; PI4KB E2 SE): 0.421
delta PSI (Calu-3 cells; PNKP Intron between E14-E16 RI): −0.3
delta PSI (Calu-3 cells; PPM1K E2 SE): 0.317
delta PSI (Calu-3 cells; RBPMS E8 SE): 0.301
delta PSI (Calu-3 cells; RPGR E14 SE): 0.448
delta PSI (Calu-3 cells; RPL3 Intron between E7-E9 RI): −0.381
delta PSI (Calu-3 cells; RPL13A Intron between E2-E4 RI): −0.654
delta PSI (Calu-3 cells; RTN4 E3 SE): 0.361
delta PSI (Calu-3 cells; SAMD9L Partial Intron on E3 RI): 0.364
delta PSI (Calu-3 cells; SLC25A29 E2-E3 SE additional exon): −0.314
delta PSI (Calu-3 cells; SMARCA1 E13 SE): 0.367
delta PSI (Calu-3 cells; SNX14 E16 SE): 0.336
delta PSI (Calu-3 cells; SPATA20 E1-E2 SE additional exon): −0.319
delta PSI (Calu-3 cells; TRIM2 E2 SE): 0.372
delta PSI (Calu-3 cells; TRMU Intron between E9-E11 RI): −0.333
delta PSI (Calu-3 cells; WNK1 E11 SE): 0.517
delta PSI (Calu-3 cells; ZNF519 E3 A3SS): 0.316
28S rRNA peak fold change [3]: 0.56
concentration of decomposition products, sized 2,000-3,000 nucleotides, fold change [3]: 1.35
